Results published in the Biogen ADME set (Fang et al. 2023).
Values after ≈ are worked out from the molar mass of the structure shown.

Conditions: for aqueous solubility: pH 6.8

O=S1(=O)CCN(C2CCN(CC(F)(F)F)CC2)CC1
MDR1-MDCK efflux ratio: 0.765
intrinsic clearance, human liver microsomes: ≤ 4.74 mL/min/kg
intrinsic clearance, rat liver microsomes: 20.1 mL/min/kg

Cc1nc(CCNc2cnccc2C#N)cs1
intrinsic clearance, human liver microsomes: 55.6 mL/min/kg
intrinsic clearance, rat liver microsomes: 391 mL/min/kg

NCC(=O)Nc1ccc2[nH]c(=O)[nH]c2c1
aqueous solubility: 104 µg/mL (≈ 506 µM)

OCc1ccc(Cn2cc(-c3cc(F)ccc3-n3cccn3)nn2)cc1
MDR1-MDCK efflux ratio: 2.09
intrinsic clearance, human liver microsomes: 15.5 mL/min/kg
intrinsic clearance, rat liver microsomes: 114 mL/min/kg
aqueous solubility: 34.5 µg/mL (≈ 98.9 µM)

O=C(Nc1ccccc1)N1CCCc2cnc(N3CCOCC3)nc21
MDR1-MDCK efflux ratio: 1.22
intrinsic clearance, human liver microsomes: ≤ 4.74 mL/min/kg
intrinsic clearance, rat liver microsomes: 116 mL/min/kg
aqueous solubility: 5.86 µg/mL (≈ 17.3 µM)

c1ccc(Cc2n[nH]c(CSc3ccccc3)n2)cc1
MDR1-MDCK efflux ratio: 0.734
intrinsic clearance, human liver microsomes: 89.2 mL/min/kg
intrinsic clearance, rat liver microsomes: 1320 mL/min/kg
aqueous solubility: 16.8 µg/mL (≈ 59.8 µM)

Cc1cc(-c2nncc3c(C(C)(C)C)c(OCc4ncnn4C)nn23)no1
MDR1-MDCK efflux ratio: 8.04
intrinsic clearance, human liver microsomes: ≤ 4.74 mL/min/kg
intrinsic clearance, rat liver microsomes: 83.6 mL/min/kg

COc1cc(N2CCN(C)CC2)ccc1Nc1ncc2c(n1)N(C)c1ccccc1C(=O)N2
MDR1-MDCK efflux ratio: 45
intrinsic clearance, human liver microsomes: 14.2 mL/min/kg
intrinsic clearance, rat liver microsomes: 131 mL/min/kg
aqueous solubility: 61.7 µg/mL (≈ 138 µM)

CCCn1ncnc1-c1ccccc1SC
MDR1-MDCK efflux ratio: 0.798
intrinsic clearance, human liver microsomes: 82.5 mL/min/kg
intrinsic clearance, rat liver microsomes: 765 mL/min/kg
aqueous solubility: 19.9 µg/mL (≈ 85.2 µM)

Cc1csc(CCNc2ncccc2C#N)n1
intrinsic clearance, human liver microsomes: 73 mL/min/kg
intrinsic clearance, rat liver microsomes: 876 mL/min/kg
aqueous solubility: 32.1 µg/mL (≈ 131 µM)

Nc1nc(NCCNc2ncc(-c3ncc[nH]3)c(-c3ccc(Cl)cc3Cl)n2)ccc1[N+](=O)[O-]
aqueous solubility: 29.9 µg/mL (≈ 61.6 µM)

COc1cccc(-c2nnn(Cc3cc(F)cc4cccnc34)n2)c1
MDR1-MDCK efflux ratio: 0.486
aqueous solubility: 0.14 µg/mL (≈ 0.417 µM)

Cn1cc(C(C)(C)NC(=O)C#Cc2ccc3c(c2)OCO3)cn1
MDR1-MDCK efflux ratio: 3.89
intrinsic clearance, human liver microsomes: ≤ 4.74 mL/min/kg
intrinsic clearance, rat liver microsomes: 51.1 mL/min/kg

Cn1cc(Br)cc1C(=O)N1CCc2nn[nH]c2C1
intrinsic clearance, human liver microsomes: ≤ 4.74 mL/min/kg
intrinsic clearance, rat liver microsomes: 43.8 mL/min/kg

CCCc1noc2nc(-c3ccncc3)cc(C(=O)O)c12
MDR1-MDCK efflux ratio: 0.841
intrinsic clearance, human liver microsomes: ≤ 4.74 mL/min/kg
intrinsic clearance, rat liver microsomes: 18.1 mL/min/kg

O=C1c2cccc3cccc(c23)C(=O)N1CCN1CCOCC1
MDR1-MDCK efflux ratio: 0.595
intrinsic clearance, human liver microsomes: 12.1 mL/min/kg
intrinsic clearance, rat liver microsomes: 424 mL/min/kg
aqueous solubility: 36.9 µg/mL (≈ 119 µM)

O=C(/C=C/N1C[C@H]2C[C@@H]1CN2c1ccccn1)c1ccccc1O
MDR1-MDCK efflux ratio: 0.976
aqueous solubility: 42 µg/mL (≈ 131 µM)

COCC(=O)Nc1cc(C#N)cn1C(C)(C)C
MDR1-MDCK efflux ratio: 1.29
intrinsic clearance, human liver microsomes: ≤ 4.74 mL/min/kg
intrinsic clearance, rat liver microsomes: 15.3 mL/min/kg

C1CN(c2nc3c(c(N4CCSCC4)n2)SCC3)CCS1
MDR1-MDCK efflux ratio: 0.383
intrinsic clearance, human liver microsomes: 126 mL/min/kg
intrinsic clearance, rat liver microsomes: 1530 mL/min/kg

CCOC1CCN(c2ccnc(C(=O)NCc3ccccc3)c2)CC1
MDR1-MDCK efflux ratio: 0.488
intrinsic clearance, human liver microsomes: 18.3 mL/min/kg
intrinsic clearance, rat liver microsomes: 390 mL/min/kg

Cc1cccc2sc(NC(=O)c3cccnc3)nc12
MDR1-MDCK efflux ratio: 0.329
aqueous solubility: 0.52 µg/mL (≈ 1.93 µM)

c1ccc(-c2n[nH]c(C3CCN(c4ccccn4)CC3)n2)cc1
MDR1-MDCK efflux ratio: 0.974
intrinsic clearance, human liver microsomes: 15.8 mL/min/kg
intrinsic clearance, rat liver microsomes: 440 mL/min/kg
aqueous solubility: 34.4 µg/mL (≈ 113 µM)

Cc1ncc(-c2ccc(C)c(S(=O)(=O)NCc3cnn(C)c3C)c2)o1
MDR1-MDCK efflux ratio: 36.5
intrinsic clearance, human liver microsomes: 177 mL/min/kg
intrinsic clearance, rat liver microsomes: 1370 mL/min/kg

Cc1cc(CN(C)C(=O)C(=O)Nc2ccc(F)c(C)c2)no1
intrinsic clearance, human liver microsomes: 13.7 mL/min/kg
intrinsic clearance, rat liver microsomes: 270 mL/min/kg

O=C(c1cc(-c2ccccc2)[nH]n1)N1CCc2ccccc21
aqueous solubility: 0.84 µg/mL (≈ 2.9 µM)

O=C(O)c1cccc(N2CCC(Oc3ccc(Cl)cc3)CC2)n1
MDR1-MDCK efflux ratio: 0.711
intrinsic clearance, human liver microsomes: 4.88 mL/min/kg
intrinsic clearance, rat liver microsomes: ≤ 10.7 mL/min/kg
aqueous solubility: 45 µg/mL (≈ 135 µM)

CC(C)(C(=O)NCc1ccccn1)c1ccccc1
MDR1-MDCK efflux ratio: 0.736
intrinsic clearance, human liver microsomes: ≤ 4.74 mL/min/kg
intrinsic clearance, rat liver microsomes: 138 mL/min/kg
aqueous solubility: 77.6 µg/mL (≈ 305 µM)

O=C(Cn1cc(NCc2cccc(Cl)c2)cn1)N1CCOCC1
MDR1-MDCK efflux ratio: 4.24
intrinsic clearance, human liver microsomes: 5.9 mL/min/kg
intrinsic clearance, rat liver microsomes: 71.9 mL/min/kg

Cc1ccc2c(CC(=O)N(C)Cc3nnc4n3CCC4)coc2c1C
MDR1-MDCK efflux ratio: 66.1
intrinsic clearance, human liver microsomes: 36.5 mL/min/kg
intrinsic clearance, rat liver microsomes: 651 mL/min/kg
aqueous solubility: 54.5 µg/mL (≈ 161 µM)

CC(=O)c1ccc(OCCCCN2CCCC2)cc1
MDR1-MDCK efflux ratio: 0.895
intrinsic clearance, human liver microsomes: ≤ 4.74 mL/min/kg
intrinsic clearance, rat liver microsomes: 453 mL/min/kg
aqueous solubility: 36.3 µg/mL (≈ 139 µM)

CCN(C(=O)c1cc(NC(C)=O)ccc1F)C1CCCC1
MDR1-MDCK efflux ratio: 14.2
intrinsic clearance, human liver microsomes: 63 mL/min/kg
intrinsic clearance, rat liver microsomes: 2210 mL/min/kg
aqueous solubility: 48.8 µg/mL (≈ 167 µM)

O=C(NCCc1cccc2cccnc12)C1CCCCC1
intrinsic clearance, human liver microsomes: 158 mL/min/kg
intrinsic clearance, rat liver microsomes: 906 mL/min/kg
aqueous solubility: 41.7 µg/mL (≈ 148 µM)
